Assay results as given in the kinase profiling compilation of Christmann-Franck et al. (2016).

How the values were obtained:
Assay in all cases: radiometric filter-binding kinase assay, Kinase HotSpot
Settings in all cases: compound 0.5 µM; ATP 10 µM
AURKB (human) = AURKB (human) (UniProt Q96GD4)
ACVR1B (human) = ACVR1B (human) (UniProt P36896)
DAPK2 (human) = DAPK2 (human) (UniProt Q9UIK4)
EPHA3 (human) = EPHA3 (human) (UniProt P29320)
IRAK1 (human) = IRAK1 (human) (UniProt P51617)
STK3 (human) = STK3 (human) (UniProt Q13188)
MAPK11 (human) = MAPK11 (human) (UniProt Q15759)
PRKCB1 (human) = PRKCB1 (human) (UniProt P05771)
RPS6KA3 KD1 KD2 (human) = RPS6KA3 KD1 KD2 (human) (UniProt P51812)
PHKG2 (human) = PHKG2 (human) (UniProt P15735)
ULK3 (human) = ULK3 (human) (UniProt Q6PHR2)
GSK3B (human) = GSK3B (human) (UniProt P49841)
RPS6KB1 (human) = RPS6KB1 (human) (UniProt P23443)
NEK1 (human) = NEK1 (human) (UniProt Q96PY6)
PNCK (human) = PNCK (human) (UniProt Q6P2M8)
YES1 (human) = YES1 (human) (UniProt P07947)
MST4 (human) = MST4 (human) (UniProt Q9P289)
PAK4 (human) = PAK4 (human) (UniProt O96013)
CAMK1 (human) = CAMK1 (human) (UniProt Q14012)
PLK1 (human) = PLK1 (human) (UniProt P53350)
ERBB2 (human) = ERBB2 (human) (UniProt P04626)
TYRO3 (human) = TYRO3 (human) (UniProt Q06418)
CHEK1 (human) = CHEK1 (human) (UniProt O14757)
MYLK (human) = MYLK (human) (UniProt Q15746)
RPS6KA6 KD1 KD2 (human) = RPS6KA6 KD1 KD2 (human) (UniProt Q9UK32)
PRKCI (human) = PRKCI (human) (UniProt P41743)
MKNK2 (human) = MKNK2 (human) (UniProt Q9HBH9)
MYLK2 (human) = MYLK2 (human) (UniProt Q9H1R3)
EPHB3 (human) = EPHB3 (human) (UniProt P54753)
IKBKE (human) = IKBKE (human) (UniProt Q14164)
STK25 (human) = STK25 (human) (UniProt O00506)
CLK2 (human) = CLK2 (human) (UniProt P49760)
STK38 (human) = STK38 (human) (UniProt Q15208)
FGFR1 (human) = FGFR1 (human) (UniProt P11362)
MLTK (human) = MLTK (human) (UniProt Q9NYL2)
PRKD2 (human) = PRKD2 (human) (UniProt Q9BZL6)
RET (human) = RET (human) (UniProt P07949)
MINK1 (human) = MINK1 (human) (UniProt Q8N4C8)
MET (human) = MET (human) (UniProt P08581)
MAPK10 (human) = MAPK10 (human) (UniProt P53779)
MAPKAPK5 (human) = MAPKAPK5 (human) (UniProt Q8IW41)
NEK7 (human) = NEK7 (human) (UniProt Q8TDX7)

Chain of NEK1 (human) (Q96PY6 whole entry, looked up): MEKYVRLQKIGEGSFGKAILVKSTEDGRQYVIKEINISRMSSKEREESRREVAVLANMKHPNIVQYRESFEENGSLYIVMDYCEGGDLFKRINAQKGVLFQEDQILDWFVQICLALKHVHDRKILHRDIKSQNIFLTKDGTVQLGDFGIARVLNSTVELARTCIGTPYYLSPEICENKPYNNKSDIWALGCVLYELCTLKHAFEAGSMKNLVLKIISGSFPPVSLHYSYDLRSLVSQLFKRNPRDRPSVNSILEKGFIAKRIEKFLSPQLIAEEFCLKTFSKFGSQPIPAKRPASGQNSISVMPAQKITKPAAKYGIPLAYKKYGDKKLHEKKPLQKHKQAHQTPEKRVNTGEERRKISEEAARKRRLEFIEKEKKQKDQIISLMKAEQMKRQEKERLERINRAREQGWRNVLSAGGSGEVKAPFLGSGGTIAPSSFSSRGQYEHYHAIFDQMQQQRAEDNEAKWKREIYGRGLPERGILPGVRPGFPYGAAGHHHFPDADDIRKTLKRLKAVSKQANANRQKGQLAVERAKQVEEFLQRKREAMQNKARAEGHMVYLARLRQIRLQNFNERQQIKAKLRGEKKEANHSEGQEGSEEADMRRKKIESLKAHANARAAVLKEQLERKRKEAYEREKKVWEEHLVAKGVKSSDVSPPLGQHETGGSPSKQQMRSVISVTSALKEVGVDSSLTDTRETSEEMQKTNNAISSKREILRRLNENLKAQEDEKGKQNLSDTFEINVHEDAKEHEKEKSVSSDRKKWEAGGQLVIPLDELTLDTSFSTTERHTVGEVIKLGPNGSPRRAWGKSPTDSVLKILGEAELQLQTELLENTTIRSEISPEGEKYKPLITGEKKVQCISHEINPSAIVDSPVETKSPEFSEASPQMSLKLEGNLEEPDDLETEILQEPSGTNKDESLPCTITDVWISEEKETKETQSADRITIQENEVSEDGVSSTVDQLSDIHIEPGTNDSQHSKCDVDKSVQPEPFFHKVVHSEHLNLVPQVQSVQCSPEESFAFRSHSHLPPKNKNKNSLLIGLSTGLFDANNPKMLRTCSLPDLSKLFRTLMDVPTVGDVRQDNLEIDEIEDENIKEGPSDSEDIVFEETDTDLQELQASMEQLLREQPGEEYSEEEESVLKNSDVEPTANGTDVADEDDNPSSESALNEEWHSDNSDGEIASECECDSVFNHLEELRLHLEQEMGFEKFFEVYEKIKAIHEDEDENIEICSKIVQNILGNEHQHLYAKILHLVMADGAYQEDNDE
Chain of MINK1 (human) (Q8N4C8 whole entry, looked up): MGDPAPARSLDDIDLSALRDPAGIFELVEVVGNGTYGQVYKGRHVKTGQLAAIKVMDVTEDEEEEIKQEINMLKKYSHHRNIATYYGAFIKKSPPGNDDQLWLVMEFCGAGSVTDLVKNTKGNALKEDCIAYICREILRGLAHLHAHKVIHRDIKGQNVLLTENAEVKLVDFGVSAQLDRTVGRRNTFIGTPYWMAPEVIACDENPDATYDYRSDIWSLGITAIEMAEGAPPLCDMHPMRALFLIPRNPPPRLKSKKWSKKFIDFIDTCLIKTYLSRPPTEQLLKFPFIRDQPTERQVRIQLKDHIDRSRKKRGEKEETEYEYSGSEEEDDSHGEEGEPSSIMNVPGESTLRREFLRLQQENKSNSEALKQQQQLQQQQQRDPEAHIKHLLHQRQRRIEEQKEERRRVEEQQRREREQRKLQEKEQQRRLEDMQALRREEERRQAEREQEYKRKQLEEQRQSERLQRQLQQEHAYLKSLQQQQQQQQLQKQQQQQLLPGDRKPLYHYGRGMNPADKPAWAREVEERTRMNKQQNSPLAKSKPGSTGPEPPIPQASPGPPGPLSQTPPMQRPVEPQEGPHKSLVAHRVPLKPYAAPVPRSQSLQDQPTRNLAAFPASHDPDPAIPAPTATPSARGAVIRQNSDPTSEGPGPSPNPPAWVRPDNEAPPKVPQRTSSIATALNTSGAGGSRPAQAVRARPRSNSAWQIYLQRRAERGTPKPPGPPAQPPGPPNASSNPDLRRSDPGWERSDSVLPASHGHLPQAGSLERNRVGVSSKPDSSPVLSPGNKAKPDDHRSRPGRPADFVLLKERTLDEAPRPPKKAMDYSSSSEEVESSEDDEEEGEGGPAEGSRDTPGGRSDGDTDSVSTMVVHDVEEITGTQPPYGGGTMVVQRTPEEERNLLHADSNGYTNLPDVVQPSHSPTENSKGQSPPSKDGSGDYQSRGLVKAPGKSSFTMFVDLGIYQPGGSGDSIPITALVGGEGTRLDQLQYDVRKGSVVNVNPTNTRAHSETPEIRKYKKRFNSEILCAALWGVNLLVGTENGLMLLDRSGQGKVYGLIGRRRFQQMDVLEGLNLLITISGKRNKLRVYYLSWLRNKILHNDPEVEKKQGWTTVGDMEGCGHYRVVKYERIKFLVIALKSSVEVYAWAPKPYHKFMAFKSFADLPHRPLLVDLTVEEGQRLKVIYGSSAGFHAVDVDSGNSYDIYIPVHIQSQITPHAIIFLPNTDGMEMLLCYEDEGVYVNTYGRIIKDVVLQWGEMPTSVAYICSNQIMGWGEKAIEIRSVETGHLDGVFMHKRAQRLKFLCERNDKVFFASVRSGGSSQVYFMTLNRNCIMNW
Chain of MAPK11 (human) (Q15759 whole entry, looked up): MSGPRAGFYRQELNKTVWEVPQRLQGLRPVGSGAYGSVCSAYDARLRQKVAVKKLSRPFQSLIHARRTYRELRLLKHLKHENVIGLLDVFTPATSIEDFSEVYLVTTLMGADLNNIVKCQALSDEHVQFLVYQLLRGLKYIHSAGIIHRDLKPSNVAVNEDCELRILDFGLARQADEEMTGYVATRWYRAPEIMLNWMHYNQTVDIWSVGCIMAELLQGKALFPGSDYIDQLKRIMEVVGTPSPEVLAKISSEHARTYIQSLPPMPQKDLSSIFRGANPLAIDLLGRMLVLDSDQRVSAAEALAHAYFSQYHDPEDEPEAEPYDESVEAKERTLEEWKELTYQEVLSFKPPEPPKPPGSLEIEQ
Chain of DAPK2 (human) (Q9UIK4 whole entry, looked up): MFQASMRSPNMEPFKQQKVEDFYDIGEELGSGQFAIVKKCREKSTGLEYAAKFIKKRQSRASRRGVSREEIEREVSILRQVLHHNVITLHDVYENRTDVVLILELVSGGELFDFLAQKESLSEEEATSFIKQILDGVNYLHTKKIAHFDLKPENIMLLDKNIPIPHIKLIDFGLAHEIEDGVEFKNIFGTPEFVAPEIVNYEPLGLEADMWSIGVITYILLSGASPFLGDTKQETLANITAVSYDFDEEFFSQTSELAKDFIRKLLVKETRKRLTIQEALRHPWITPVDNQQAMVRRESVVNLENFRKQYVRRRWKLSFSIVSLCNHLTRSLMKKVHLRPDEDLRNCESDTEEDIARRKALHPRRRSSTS
Chain of PLK1 (human) (P53350 whole entry, looked up): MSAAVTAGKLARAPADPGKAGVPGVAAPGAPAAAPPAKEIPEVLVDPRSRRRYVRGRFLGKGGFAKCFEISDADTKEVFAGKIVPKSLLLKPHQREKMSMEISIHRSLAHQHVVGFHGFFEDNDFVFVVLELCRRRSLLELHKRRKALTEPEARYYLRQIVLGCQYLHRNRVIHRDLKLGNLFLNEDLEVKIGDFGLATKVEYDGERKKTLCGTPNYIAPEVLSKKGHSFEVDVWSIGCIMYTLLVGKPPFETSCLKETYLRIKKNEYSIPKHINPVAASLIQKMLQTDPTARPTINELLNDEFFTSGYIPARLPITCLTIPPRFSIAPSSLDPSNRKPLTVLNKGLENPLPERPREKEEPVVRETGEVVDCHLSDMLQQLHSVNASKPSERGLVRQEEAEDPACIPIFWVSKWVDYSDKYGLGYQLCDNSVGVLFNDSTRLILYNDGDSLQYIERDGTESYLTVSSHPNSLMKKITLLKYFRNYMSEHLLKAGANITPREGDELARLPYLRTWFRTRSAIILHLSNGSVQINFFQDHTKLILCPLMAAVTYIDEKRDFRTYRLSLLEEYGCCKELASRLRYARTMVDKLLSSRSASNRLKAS
Chain of CHEK1 (human) (O14757 whole entry, looked up): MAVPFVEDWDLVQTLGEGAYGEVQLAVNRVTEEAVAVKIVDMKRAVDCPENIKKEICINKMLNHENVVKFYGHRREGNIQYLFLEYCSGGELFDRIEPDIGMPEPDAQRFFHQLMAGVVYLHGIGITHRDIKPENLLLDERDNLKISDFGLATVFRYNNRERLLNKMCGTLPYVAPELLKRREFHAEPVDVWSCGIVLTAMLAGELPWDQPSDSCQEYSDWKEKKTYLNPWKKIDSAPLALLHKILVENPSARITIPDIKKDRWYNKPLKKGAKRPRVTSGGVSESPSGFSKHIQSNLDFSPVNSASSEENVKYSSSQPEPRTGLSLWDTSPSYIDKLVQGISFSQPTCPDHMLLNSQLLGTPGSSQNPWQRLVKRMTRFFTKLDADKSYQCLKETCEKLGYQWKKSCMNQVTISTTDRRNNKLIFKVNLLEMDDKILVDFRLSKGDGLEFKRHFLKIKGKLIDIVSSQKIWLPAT
Chain of GSK3B (human) (P49841 whole entry, looked up): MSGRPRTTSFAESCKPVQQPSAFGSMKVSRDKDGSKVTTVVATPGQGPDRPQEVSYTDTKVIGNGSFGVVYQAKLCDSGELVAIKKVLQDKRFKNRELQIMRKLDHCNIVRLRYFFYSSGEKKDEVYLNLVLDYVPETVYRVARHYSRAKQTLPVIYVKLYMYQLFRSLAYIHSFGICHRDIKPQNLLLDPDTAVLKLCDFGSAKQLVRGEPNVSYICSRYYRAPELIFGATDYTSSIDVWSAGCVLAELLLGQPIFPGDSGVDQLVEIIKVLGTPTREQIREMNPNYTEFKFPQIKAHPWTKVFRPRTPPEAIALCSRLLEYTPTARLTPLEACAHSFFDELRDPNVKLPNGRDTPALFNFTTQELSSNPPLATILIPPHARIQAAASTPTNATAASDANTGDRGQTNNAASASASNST

With `CCOC(=O)c1c(C)[nH]c(/C=C2\C(=O)Nc3ccccc32)c1C` the residual activity (AURKB (human)) was 67.3%, the residual activity (ACVR1B (human)) was 96.6% and the residual activity (DAPK2 (human)) was 96.3%. It also gave a residual activity (EPHA3 (human)) of 96.3%, a residual activity (IRAK1 (human)) of 111% and a residual activity (STK3 (human)) of 73.7%. It also gave a residual activity (MAPK11 (human)) of 97.5%, a residual activity (PRKCB1 (human)) of 103% and a residual activity (RPS6KA3 KD1 KD2 (human)) of 86.4%. For the same molecule, the residual activity (PHKG2 (human)) was 96.2%, the residual activity (ULK3 (human)) was 76.7% and the residual activity (GSK3B (human)) was 105%. The residual activity (RPS6KB1 (human)) was 85.7%, the residual activity (NEK1 (human)) was 92.5% and the residual activity (PNCK (human)) was 88.6%. For the same molecule, the residual activity (YES1 (human)) was 68.3%, the residual activity (MST4 (human)) was 101% and the residual activity (PAK4 (human)) was 71.8%. The residual activity (CAMK1 (human)) was 98.1%, the residual activity (PLK1 (human)) was 107% and the residual activity (ERBB2 (human)) was 101%. It also gave a residual activity (TYRO3 (human)) of 96.9%, a residual activity (CHEK1 (human)) of 89.4% and a residual activity (MYLK (human)) of 94.8%. The residual activity (RPS6KA6 KD1 KD2 (human)) was 87.6%, the residual activity (PRKCI (human)) was 92.9% and the residual activity (MKNK2 (human)) was 87.4%. The residual activity (MYLK2 (human)) was 74.7%, the residual activity (EPHB3 (human)) was 94.4% and the residual activity (IKBKE (human)) was 93.5%. The residual activity (STK25 (human)) was 98.5%, the residual activity (CLK2 (human)) was 86% and the residual activity (STK38 (human)) was 101%. For the same molecule, the residual activity (FGFR1 (human)) was 78.6%, the residual activity (MLTK (human)) was 92.7% and the residual activity (PRKD2 (human)) was 97.1%. For the same molecule, the residual activity (RET (human)) was 40.8%, the residual activity (MINK1 (human)) was 88.9% and the residual activity (MET (human)) was 87.4%. The residual activity (MAPK10 (human)) was 86.8%, the residual activity (MAPKAPK5 (human)) was 93.9% and the residual activity (NEK7 (human)) was 102%.
